Test system: 873145-292-R-J1-PDC complex spheroid viability
Assay: Anticancer human tumor 873145-292-R-J1-PDC patient-derived renal clear cell carcinoma cell line growth inhibition [POLQ]
Details: for IC50: curve of first compound; for viability, T/C: stronger effect = lower value
Summary of the method: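 Three-cell-type spheroids modelling solid tumor plus stroma served as the readout system; POL inhibitors were tested individually and in combination, concentration ranges set by clinical Cmax where known.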

[1] = second compound 0.0316 µM, first compound 0.0316 µM
[2] = second compound 0.0316 µM, first compound 0.1 µM
[3] = second compound 0.0316 µM, first compound 0.316 µM
[4] = second compound 0.0316 µM, first compound 1 µM
[5] = second compound 0.0316 µM, first compound 3.16 µM
[6] = second compound 0.0316 µM, first compound 10 µM
[7] = second compound 0.1 µM, first compound 0.0316 µM
[8] = second compound 0.1 µM, first compound 0.1 µM
[9] = second compound 0.1 µM, first compound 0.316 µM
[10] = second compound 0.1 µM, first compound 1 µM
[11] = second compound 0.1 µM, first compound 3.16 µM
[12] = second compound 0.1 µM, first compound 10 µM
[13] = second compound 0.316 µM, first compound 0.0316 µM
[14] = second compound 0.316 µM, first compound 0.1 µM
[15] = second compound 0.316 µM, first compound 0.316 µM
[16] = second compound 0.316 µM, first compound 1 µM
[17] = second compound 0.316 µM, first compound 3.16 µM
[18] = second compound 0.316 µM, first compound 10 µM
[19] = second compound 1 µM, first compound 0.0316 µM
[20] = second compound 1 µM, first compound 0.1 µM
[21] = second compound 1 µM, first compound 0.316 µM
[22] = second compound 1 µM, first compound 1 µM
[23] = second compound 1 µM, first compound 3.16 µM
[24] = second compound 1 µM, first compound 10 µM
[25] = second compound 3.16 µM, first compound 0.0316 µM
[26] = second compound 3.16 µM, first compound 0.1 µM
[27] = second compound 3.16 µM, first compound 0.316 µM
[28] = second compound 3.16 µM, first compound 1 µM
[29] = second compound 3.16 µM, first compound 3.16 µM
[30] = second compound 3.16 µM, first compound 10 µM
[31] = second compound 10 µM, first compound 0.0316 µM
[32] = second compound 10 µM, first compound 0.1 µM
[33] = second compound 10 µM, first compound 0.316 µM
[34] = second compound 10 µM, first compound 1 µM
[35] = second compound 10 µM, first compound 3.16 µM
[36] = second compound 10 µM, first compound 10 µM
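Also: spheroids exposed to compounds for 7 days before viability readout.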
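For viability, T/C in this document: luminescence signal used as surrogate for viable cell content; 100% = DMSO vehicle control viability.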

Structure (SMILES): C#Cc1c(F)ccc2cc(O)cc(-c3ncc4c(N5CC6CCC(C5)N6)nc(OCC56CCCN5CC(F)C6)nc4c3F)c12 (stereo not given) + Cc1cccc(N(C)C(=O)C2C(O)CCN2c2nc(C)cc(C(F)(F)F)c2C#N)c1
- IC50 (second compound 0.0316 µM): > 10 µM
- IC50 (second compound 0.1 µM): > 10 µM
- IC50 (second compound 0.316 µM): > 10 µM
- IC50 (second compound 1 µM): > 10 µM
- IC50 (second compound 3.16 µM): > 10 µM
- IC50 (second compound 10 µM): > 10 µM
- viability, T/C [1]: 94.5%
- viability, T/C [2]: 112%
- viability, T/C [3]: 88%
- viability, T/C [4]: 91%
- viability, T/C [5]: 98%
- viability, T/C [6]: 88.8%
- viability, T/C [7]: 103%
- viability, T/C [8]: 97.4%
- viability, T/C [9]: 89.5%
- viability, T/C [10]: 89%
- viability, T/C [11]: 102%
- viability, T/C [12]: 92.1%
- viability, T/C [13]: 96%
- viability, T/C [14]: 94.6%
- viability, T/C [15]: 107%
- viability, T/C [16]: 92.1%
- viability, T/C [17]: 87.3%
- viability, T/C [18]: 90.7%
- viability, T/C [19]: 99.8%
- viability, T/C [20]: 89.2%
- viability, T/C [21]: 91.2%
- viability, T/C [22]: 93.7%
- viability, T/C [23]: 95.1%
- viability, T/C [24]: 88.8%
- viability, T/C [25]: 87.1%
- viability, T/C [26]: 84.5%
- viability, T/C [27]: 89.6%
- viability, T/C [28]: 95.9%
- viability, T/C [29]: 85.1%
- viability, T/C [30]: 89.6%
- viability, T/C [31]: 86.5%
- viability, T/C [32]: 95.8%
- viability, T/C [33]: 95.8%
- viability, T/C [34]: 94.4%
- viability, T/C [35]: 82.5%
- viability, T/C [36]: 86.9%

Structure (SMILES): CCc1cc2c(N3CCc4c(cc(Cn5ccnc5)cc4-c4cn(C)nc4C(F)(F)F)C3=O)cc(C)nc2c(OC)n1 + Cc1cccc(N(C)C(=O)C2C(O)CCN2c2nc(C)cc(C(F)(F)F)c2C#N)c1
- IC50 (second compound 0.0316 µM): > 10 µM
- IC50 (second compound 0.1 µM): > 10 µM
- IC50 (second compound 0.316 µM): > 10 µM
- IC50 (second compound 1 µM): > 10 µM
- IC50 (second compound 3.16 µM): > 10 µM
- IC50 (second compound 10 µM): > 10 µM
- viability, T/C [1]: 99.1%
- viability, T/C [2]: 99.8%
- viability, T/C [3]: 102%
- viability, T/C [4]: 77.3%
- viability, T/C [5]: 105%
- viability, T/C [6]: 83.2%
- viability, T/C [7]: 97.1%
- viability, T/C [8]: 99.8%
- viability, T/C [9]: 80.5%
- viability, T/C [10]: 90.5%
- viability, T/C [11]: 93.9%
- viability, T/C [12]: 89.8%
- viability, T/C [13]: 97.4%
- viability, T/C [14]: 102%
- viability, T/C [15]: 76.1%
- viability, T/C [16]: 97.5%
- viability, T/C [17]: 84.2%
- viability, T/C [18]: 87.4%
- viability, T/C [19]: 93%
- viability, T/C [20]: 86.5%
- viability, T/C [21]: 91.4%
- viability, T/C [22]: 79.4%
- viability, T/C [23]: 102%
- viability, T/C [24]: 70.2%
- viability, T/C [25]: 90.7%
- viability, T/C [26]: 87.4%
- viability, T/C [27]: 87.5%
- viability, T/C [28]: 96.7%
- viability, T/C [29]: 77.2%
- viability, T/C [30]: 89.6%
- viability, T/C [31]: 89.1%
- viability, T/C [32]: 102%
- viability, T/C [33]: 93.1%
- viability, T/C [34]: 88.5%
- viability, T/C [35]: 76.7%
- viability, T/C [36]: 81.6%

Structure (SMILES): CCc1cc2c(N3CCc4c(cc(Cn5ccnc5)cc4-c4cn(C)nc4C(F)(F)F)C3=O)ccnc2c(OC)n1 + Cc1cccc(N(C)C(=O)C2C(O)CCN2c2nc(C)cc(C(F)(F)F)c2C#N)c1
- IC50 (second compound 0.0316 µM): > 10 µM
- IC50 (second compound 0.1 µM): > 10 µM
- IC50 (second compound 0.316 µM): > 10 µM
- IC50 (second compound 1 µM): > 10 µM
- IC50 (second compound 3.16 µM): > 10 µM
- IC50 (second compound 10 µM): > 10 µM
- viability, T/C [1]: 92.1%
- viability, T/C [2]: 114%
- viability, T/C [3]: 100%
- viability, T/C [4]: 94.6%
- viability, T/C [5]: 88%
- viability, T/C [6]: 83.2%
- viability, T/C [7]: 99.6%
- viability, T/C [8]: 118%
- viability, T/C [9]: 88.9%
- viability, T/C [10]: 95%
- viability, T/C [11]: 91.6%
- viability, T/C [12]: 78.4%
- viability, T/C [13]: 105%
- viability, T/C [14]: 101%
- viability, T/C [15]: 82.2%
- viability, T/C [16]: 94.6%
- viability, T/C [17]: 94.6%
- viability, T/C [18]: 83.7%
- viability, T/C [19]: 90.5%
- viability, T/C [20]: 87.3%
- viability, T/C [21]: 91.7%
- viability, T/C [22]: 93.4%
- viability, T/C [23]: 89.7%
- viability, T/C [24]: 78%
- viability, T/C [25]: 88.2%
- viability, T/C [26]: 104%
- viability, T/C [27]: 85%
- viability, T/C [28]: 91.3%
- viability, T/C [29]: 80.1%
- viability, T/C [30]: 90.1%
- viability, T/C [31]: 90.1%
- viability, T/C [32]: 97.3%
- viability, T/C [33]: 85.3%
- viability, T/C [34]: 84.5%
- viability, T/C [35]: 81.2%
- viability, T/C [36]: 90.3%

Structure (SMILES): COc1cc2cc(C(=O)CCC(=O)O)sc2cc1OC + Cc1cccc(N(C)C(=O)C2C(O)CCN2c2nc(C)cc(C(F)(F)F)c2C#N)c1
- IC50 (second compound 0.0316 µM): > 10 µM
- IC50 (second compound 0.1 µM): > 10 µM
- IC50 (second compound 0.316 µM): > 10 µM
- IC50 (second compound 1 µM): > 10 µM
- IC50 (second compound 3.16 µM): > 10 µM
- IC50 (second compound 10 µM): > 10 µM
- viability, T/C [1]: 103%
- viability, T/C [2]: 106%
- viability, T/C [3]: 111%
- viability, T/C [4]: 105%
- viability, T/C [5]: 101%
- viability, T/C [6]: 104%
- viability, T/C [7]: 97.9%
- viability, T/C [8]: 115%
- viability, T/C [9]: 96.9%
- viability, T/C [10]: 92.1%
- viability, T/C [11]: 98.8%
- viability, T/C [12]: 107%
- viability, T/C [13]: 98.3%
- viability, T/C [14]: 110%
- viability, T/C [15]: 95.1%
- viability, T/C [16]: 96.1%
- viability, T/C [17]: 93.5%
- viability, T/C [18]: 97.6%
- viability, T/C [19]: 101%
- viability, T/C [20]: 98.7%
- viability, T/C [21]: 94%
- viability, T/C [22]: 100%
- viability, T/C [23]: 95.6%
- viability, T/C [24]: 103%
- viability, T/C [25]: 89%
- viability, T/C [26]: 117%
- viability, T/C [27]: 102%
- viability, T/C [28]: 99.4%
- viability, T/C [29]: 98.4%
- viability, T/C [30]: 101%
- viability, T/C [31]: 98.2%
- viability, T/C [32]: 95.9%
- viability, T/C [33]: 102%
- viability, T/C [34]: 97.7%
- viability, T/C [35]: 104%
- viability, T/C [36]: 103%

Structure (SMILES): O=C(Nc1ccc(O)c(NS(=O)(=O)c2ccc(F)cc2)c1)c1ccc(-c2ccccc2)cc1 + Cc1cccc(N(C)C(=O)C2C(O)CCN2c2nc(C)cc(C(F)(F)F)c2C#N)c1
- IC50 (second compound 0.0316 µM): > 10 µM
- IC50 (second compound 0.1 µM): > 10 µM
- IC50 (second compound 0.316 µM): > 10 µM
- IC50 (second compound 1 µM): > 10 µM
- IC50 (second compound 3.16 µM): > 10 µM
- IC50 (second compound 10 µM): > 10 µM
- viability, T/C [1]: 110%
- viability, T/C [2]: 98.5%
- viability, T/C [3]: 105%
- viability, T/C [4]: 91.6%
- viability, T/C [5]: 95%
- viability, T/C [6]: 110%
- viability, T/C [7]: 107%
- viability, T/C [8]: 112%
- viability, T/C [9]: 91.7%
- viability, T/C [10]: 96%
- viability, T/C [11]: 105%
- viability, T/C [12]: 88.6%
- viability, T/C [13]: 106%
- viability, T/C [14]: 103%
- viability, T/C [15]: 91.3%
- viability, T/C [16]: 92.8%
- viability, T/C [17]: 112%
- viability, T/C [18]: 102%
- viability, T/C [19]: 106%
- viability, T/C [20]: 109%
- viability, T/C [21]: 111%
- viability, T/C [22]: 93.2%
- viability, T/C [23]: 103%
- viability, T/C [24]: 104%
- viability, T/C [25]: 94.9%
- viability, T/C [26]: 105%
- viability, T/C [27]: 104%
- viability, T/C [28]: 99.3%
- viability, T/C [29]: 99.3%
- viability, T/C [30]: 95.5%
- viability, T/C [31]: 96.9%
- viability, T/C [32]: 107%
- viability, T/C [33]: 100%
- viability, T/C [34]: 93.9%
- viability, T/C [35]: 111%
- viability, T/C [36]: 102%
